Several values for one entry are separate records, joined by “and”; a condition that tells them apart may be missing. Identical values can stand only once.
Molecular target: human mGluR5A (Homo sapiens, UniProt P41594)
Assay: mGluR5 FLIPR Assay
Format: cell-based
Details: positive modulator activity; HEK293 (ZF) cells with human mGluR5A and rat GLAST; Ca++ response to ~EC10 glutamate
Method: HEK293 (ZF) cells stably transfected with human mGluR5A (pIRES neo) and the rat glutamate-aspartate transporter (GLAST; pIRES puro) are grown in a monolayer culture at 37° C. in 5% CO2 and fed with Minimum Essential Medium (MEM) supplemented with 10% dialysed fetal bovine serum. 24 hours prior to assay, cells are enzymatically dissociated from the culture flask (Trypsin, 0.25%), spun down (1000 rpm, 3 min), resuspended, and plated on Greiner black clear bottomed PDL-coated 384-well plates at a density of 30 thousand cells/well. […] Plates are incubated in dye at 37° C. in 5% CO2 for 60 minutes prior to delivery of test compounds in assay buffer. Test compounds are incubated with cells in the presence of dye for 10 minutes prior to being read on the FLIPR platform (Molecular Devices). A Ca^++ signal is induced in the assay plates via the delivery of an ˜EC10 concentration of the endogenous agonist 1-glutamate; images are acquired at 1 Hz for 100 seconds post-delivery of agonist stimulus. Positive modulator activity (i.e. the ability of test compounds to increase the Ca^++ response to a sub-maximal concentration of agonist) is normalized to a saturating concentration of a known mGluR5 PAM run in each assay plate. An EC50 concentration of test compounds is derived from 4-parameter logistic curve fits of transformed fluoresence data via proprietary software suite.

human mGluR5A, sequence (P41594 21-1180 isoform P41594-2): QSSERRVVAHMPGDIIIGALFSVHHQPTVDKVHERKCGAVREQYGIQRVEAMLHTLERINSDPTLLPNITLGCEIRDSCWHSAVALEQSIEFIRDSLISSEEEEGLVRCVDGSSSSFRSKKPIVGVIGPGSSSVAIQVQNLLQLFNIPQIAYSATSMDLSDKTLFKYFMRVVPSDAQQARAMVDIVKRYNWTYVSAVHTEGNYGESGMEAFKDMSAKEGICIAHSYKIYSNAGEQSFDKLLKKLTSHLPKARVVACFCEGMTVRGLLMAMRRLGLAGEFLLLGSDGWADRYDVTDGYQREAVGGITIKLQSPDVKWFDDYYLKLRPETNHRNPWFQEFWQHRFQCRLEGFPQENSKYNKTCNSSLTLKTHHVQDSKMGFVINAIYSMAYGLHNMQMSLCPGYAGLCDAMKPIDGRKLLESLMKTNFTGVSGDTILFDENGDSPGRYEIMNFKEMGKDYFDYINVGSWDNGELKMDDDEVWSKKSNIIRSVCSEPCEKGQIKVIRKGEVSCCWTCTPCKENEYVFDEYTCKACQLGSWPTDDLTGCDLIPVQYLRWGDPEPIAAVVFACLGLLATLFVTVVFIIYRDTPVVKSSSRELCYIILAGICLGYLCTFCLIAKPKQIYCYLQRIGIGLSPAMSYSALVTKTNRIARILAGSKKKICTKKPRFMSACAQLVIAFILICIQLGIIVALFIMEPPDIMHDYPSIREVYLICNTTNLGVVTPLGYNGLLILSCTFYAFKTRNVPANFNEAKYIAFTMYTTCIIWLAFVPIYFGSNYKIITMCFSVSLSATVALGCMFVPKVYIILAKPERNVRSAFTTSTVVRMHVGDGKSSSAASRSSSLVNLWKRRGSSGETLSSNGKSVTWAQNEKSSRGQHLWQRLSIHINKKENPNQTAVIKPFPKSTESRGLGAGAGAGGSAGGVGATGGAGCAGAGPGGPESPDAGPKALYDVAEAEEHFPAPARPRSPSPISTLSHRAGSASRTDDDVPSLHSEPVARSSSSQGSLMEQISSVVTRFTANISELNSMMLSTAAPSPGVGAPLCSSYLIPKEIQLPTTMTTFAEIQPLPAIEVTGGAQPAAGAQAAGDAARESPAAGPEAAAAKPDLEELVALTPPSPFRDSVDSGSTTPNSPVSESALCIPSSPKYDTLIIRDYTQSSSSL

## O=C1N[C@@H](c2nc(C#Cc3ccccc3)ccc2F)[C@H](c2ccccc2)O1 (single isomer, unassigned) [Example 306]
  EC50: > 3000 nM

## O=C1N[C@H](c2cncc(C#Cc3ccccc3)c2)[C@@H](c2cccnc2)O1 [Example 198]
  EC50: < 100 nM

## Cc1cccc([C@@H]2OC(=O)N[C@H]2c2cccc(C#Cc3ccccc3)c2)c1 (racemic) [Example 99, trans-4-(3-(phenylethynyl)phenyl)-5-m-tolyloxazolidin-2-one]
  EC50: < 100 nM

## COc1cccc([C@H]2OC(=O)N[C@@H]2c2cccc(C#Cc3cnccc3OC)c2)c1 [Example 92, (4R,5R)-5-(3-Methoxyphenyl)-4-(3-((4-methoxypyridin-3-yl)ethynyl)phenyl)oxazolidin-2-one]
  EC50: > 1000 nM

## O=C1N[C@H](c2cncc(C#Cc3cccc(Cl)c3)c2)[C@@H](c2cccc(F)c2)O1 [Example 403, (4R,5R)-4-(5-((3-chlorophenyl)ethynyl)pyridin-3-y1)-5-(3-fluorophenyl)oxazolidin-2-one]
  EC50: < 100 nM

## O=C1N[C@@H](c2cncc(C#Cc3ccccc3)c2)[C@H](c2cccs2)O1 (single isomer, unassigned) [Example 345]
  EC50: > 1000 nM

## O=C1N[C@H](c2cccc(C#Cc3cccnc3)c2)[C@H](c2cnccn2)O1 [Example 251]
  EC50: > 1000 nM

## O=C1N[C@H](c2cccc(C#Cc3cncc(F)c3)c2)[C@@H](c2ccncn2)O1 [Example 244]
  EC50: > 1000 nM

## O=C1N[C@H](c2cncc(C#Cc3ccccc3)c2)[C@@H](c2ccc(F)c(F)c2F)O1 [Example 294]
  EC50: < 100 nM and 2.7 nM

## O=C1N[C@H](c2cncc(C#Cc3ccccc3Cl)c2)[C@@H](c2cccc(F)c2F)O1 [Example 287]
  EC50: 100 to 1000 nM

## COc1cccc([C@H]2OC(=O)N[C@@H]2c2cccc(C#Cc3cccnc3F)c2)c1 [Example 79, (4R,5R)-4-(3-((2-Fluoropyridin-3-yl)ethynyl)phenyl)-5-(3-methoxyphenyl)oxazolidin-2-one]
  EC50: < 100 nM

## COc1cccc([C@H]2OC(=O)N[C@@H]2c2cccc(C#Cc3ccc(C#N)cc3)c2)c1 [Example 264]
  EC50: 100 to 1000 nM

## O=C1N[C@@H](c2cccc(C#Cc3ccccc3)c2)[C@H](c2cccs2)O1 (single isomer, unassigned) [Example 105]
  EC50: > 30000 nM

## O=C1N[C@@H](c2cncc(C#Cc3ccccc3)c2)[C@H](c2ccnnc2)O1 (single isomer, unassigned) [Example 321]
  EC50: > 1000 nM

## COc1cccc([C@H]2OC(=O)N[C@@H]2c2ccnc(C#Cc3ccccc3)c2)c1 (single isomer, unassigned) [Example 36]
  EC50: > 1000 nM

## O=C1N[C@H](c2cncc(C#Cc3ccccc3Cl)c2)[C@@H](c2cc(F)ccc2F)O1 [Example 392, (4R,5R)-4-(5-((2-chlorophenyl)ethynyl)pyridin-3-yl)-5-(2,5-difluorophenyl)oxazolidin-2-one]
  EC50: < 100 nM

## O=C1N[C@H](c2cncc(C#Cc3cccnc3)c2)[C@@H](c2ccc(F)cc2F)O1 [Example 184]
  EC50: < 100 nM

## O=C1N[C@H](c2cccc(C#Cc3ccnc(F)c3)n2)[C@@H](c2ccc(F)cc2)O1 (single isomer, unassigned) [Example 372]
  EC50: < 100 nM

## O=C1N[C@H](c2cc(C#Cc3ccnc(C4CC4)c3)cnc2F)[C@@H](c2ccc(F)cc2)O1 [Example 152, (4R,5R)-4-(5-((2-Cyclopropylpyridin-4-yl)ethynyl)-2-fluoropyridin-3-yl)-5-(4-fluorophenyl)oxazolidin-2-one]
  EC50: > 1000 nM

## COc1cccc([C@H]2OC(=O)N[C@@H]2c2cccc(C#Cc3ccccc3N)c2)c1 [Example 265]
  EC50: 100 to 1000 nM

## COc1cccc([C@H]2OC(=O)N[C@@H]2c2cccc(C#Cc3cccc(OC(F)(F)F)c3)c2)c1 [Example 269]
  EC50: > 1000 nM

## N#Cc1cncc(C#Cc2cncc([C@H]3NC(=O)O[C@@H]3c3ccc(F)cc3)c2)c1 [Example 211]
  EC50: < 100 nM
